Test results taken from PubChem BioAssay AID179 (DTP/NCI, 2004).
Active and inactive are the calls of the source.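 How the source made its calls: active means compounds giving half or more protection of infected cells from virus-caused growth loss, again on retest; inactive means the rest.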

System: CEM cells HIV-1 protection, formazan growth assay
Experiment: NCI AIDS Antiviral Assay
Conditions: for IC50: measured here: growth of uninfected CEM cells
How it was run: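 Protection of CEM cells against HIV-1 measured as cell growth via soluble formazan read-out, with five concentrations tested on both infected and uninfected cells; failure to protect may reflect toxicity.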

## CN/N=C(\C(=O)Nc1ccc(C)c(C)c1)C(C(=O)OC)c1nc2ccc([N+](=O)[O-])cc2[nH]c1=O (centres undefined)
  EC50: > 77.6 µM
  IC50: > 77.6 µM

## Nc1ccc2c3c(cccc13)C(=O)N(CCCBr)C2=O
  EC50: > 200 µM
  IC50: 7.08 µM

## CCCCCCCCCCCCC(F)C(=O)OCC1OC(n2cc(C)c(=O)[nH]c2=O)CC1N=[N+]=[N-] (centres undefined)
  EC50: 0.0123 µM
  IC50: 102 µM

## COC(=O)c1ccccc1/C=C1\Cc2ccc(C)c(C)c2C1=O
  EC50: > 200 µM
  IC50: > 200 µM

## C=CCN(CC=C)C(=O)COc1cc2c(O)c3c(O)c(C)c4c(c13)C(=O)C(C)(O/C=C\C(OC)C(C)C(OC(C)=O)C(C)C(O)C(C)C(O)C(C)/C=C\C=C(\C)C(=O)N2)O4 (centres undefined)
  EC50: > 200 µM
  IC50: 17 µM

## Cc1cc2c(c(C(N)=O)c1C)-c1ccccc1C2=O
  EC50: > 102 µM
  IC50: > 102 µM

## O=C(Nc1noc(-c2ccccc2)n1)c1ccccc1CNc1noc(-c2ccccc2)n1
  EC50: > 200 µM
  IC50: > 200 µM

## CN(C)c1ccc(/C=N/N(Cc2ccccc2)c2ccccc2)cc1
  EC50: > 6.03 µM
  IC50: > 6.03 µM

## COc1cc2c(cc1OC)C1C[C@]3(CCN1CC2)C(=O)N(c1ccccc1)C(=O)N3C(C)=O (some centres undefined)
  EC50: > 10 µM
  IC50: > 10 µM

## O=C(/C=C/c1c(O)ccc2ccccc12)c1ccccc1
  EC50: > 182 µM
  IC50: > 100 µM

## C/C(=N\NC(=S)N1CCN(c2ccccn2)CC1)c1nccs1
  EC50: > 145 µM
  IC50: 0.646 µM

## CCCc1cc(=O)oc2c3c(c4c(c12)OC(C)(C)[C@H](O)[C@H]4O)O[C@@H](C)[C@H](C)[C@@H]3O
  EC50: > 200 µM
  IC50: 115 µM

## COc1ccc(NC(=O)CC(=O)N2N=C(N(CCC#N)c3ccc(Cl)cc3)CC2c2ccccc2)cc1 (centres undefined)
  EC50: > 36.3 µM
  IC50: > 36.3 µM

## Cc1ccc(SC(CCC(Sc2ccc(C)cc2)Sc2ccc(C)cc2)Sc2ccc(C)cc2)cc1
  outcome: inactive

## NC(=S)N/N=C(/C(=O)Nc1nc2ccc([N+](=O)[O-])cc2s1)C1C(=O)NC(=S)NC1=O
  EC50: > 15.5 µM
  IC50: > 15.5 µM

## C[C@]12Cc3cn[nH]c3C(=O)C1CC[C@@H]1C2CC[C@@]2(C)C1CC[C@]2(C)O (some centres undefined)
  EC50: > 38 µM
  IC50: > 38 µM

## C/C(=N\N(C)C)C(CN(C)C)C(c1ccccc1)c1c(O)c2ccccc2oc1=O (centres undefined)
  EC50: > 100 µM
  IC50: 91.2 µM

## CC1CCC2N(C1)CC1C3(O)CC45OC6(O)C(O)CCC4(C)C6CCC5C3(O)CC(O)C1(O)C2(C)O (centres undefined)
  EC50: > 490 µM
  IC50: > 490 µM

## O=C1C2c3[nH]c4ccccc4c3C3CCSCC3C2C(=O)N1c1ccccc1 (centres undefined)
  outcome: inactive

## CCOC(=O)CCC1(CCC(=O)OCC)CCCCCCCCC(CCC(=O)OCC)(CCC(=O)OCC)C(=O)C1=O
  EC50: > 200 µM
  IC50: > 200 µM

## NC(N)=NS(=O)(=O)c1ccc(NC(=O)c2cccc3c(Nc4ccc(S(=O)(=O)N=C(N)N)cc4)c4ccc(Cl)cc4nc23)cc1
  EC50: > 53.7 µM
  IC50: > 53.7 µM

## CCON1CC(C(=O)OC)=C(O)C1=O
  EC50: > 200 µM
  IC50: > 200 µM

## CCO[C@@H]1N(C2CC(N=[N+]=[N-])C(CO)O2)C(=O)NC(=O)[C@@]1(C)Cl (some centres undefined)
  EC50: > 200 µM
  IC50: > 200 µM

## O=c1[nH]c(=O)n(COCCOCc2ccccc2)cc1Nc1ccccc1
  EC50: > 200 µM
  IC50: 56.2 µM

## COc1cc(CC2COC(=O)[C@@H]2Cc2ccc(O)c(OC)c2)ccc1O (some centres undefined)
  EC50: > 200 µM
  IC50: 95.5 µM

## Cc1ccc2nc(Sc3c([N+](=O)[O-])ncn3C)[nH]c2c1
  EC50: > 5.01 µM
  IC50: 4.79 µM

## O=S1c2ccccc2N=C(c2ccc3ccccc3c2)CC1C1=CC=CCC1 (centres undefined)
  EC50: > 18.6 µM
  IC50: > 18.6 µM

## COC(=O)C(Cc1ccccc1)NP(=O)(O)OCC1OC(n2cc(F)c(=O)[nH]c2=O)CC1O (centres undefined)
  EC50: > 200 µM
  IC50: 58.9 µM

## N#C/C=C\c1ccc(C#N)cc1
  EC50: > 64.6 µM
  IC50: > 64.6 µM

## Cc1cc(C)c(/C=N/NS(=O)(=O)c2ccccc2)c(C)c1
  outcome: inactive

## COC(=O)c1ccccc1CC1Cc2cc3c(cc2C1)CCC3
  EC50: > 200 µM
  IC50: 38 µM

## CN(C)Cc1cc(N=Nc2c(Cl)cccc2Cl)ccc1O
  EC50: > 200 µM
  IC50: 83.2 µM

## Cc1cc(=O)oc2cc(O)c(O)cc12
  EC50: > 200 µM
  IC50: 27.5 µM

## CCCCCCC(=O)c1c(O)c2ccccc2oc1=O
  EC50: > 200 µM
  IC50: 29.5 µM

## COC(=O)c1cc(C(=CCCCCCl)c2cc(Cl)c(OC)c(C(=O)OC)c2)cc(Cl)c1OC
  EC50: 29.5 µM
  IC50: > 200 µM

## CN(C)C1=CC(=O)c2ccccc2C12CO2 (centres undefined)
  EC50: > 234 µM
  IC50: 41.7 µM

## COc1ccc(-c2cc(=O)c3c(O)cc(OC)cc3o2)cc1
  EC50: 70.8 µM
  IC50: 74.1 µM

## Nc1nc(N)c(N=O)c(Nc2ccc(Br)c(Br)c2)n1
  outcome: inactive

## COC(=O)C(/C(=N/NC(=O)c1ccncc1)C(=O)Nc1ccccc1OC)c1nc2ccc(Cl)cc2[nH]c1=O (centres undefined)
  EC50: > 91.2 µM
  IC50: > 91.2 µM

## CCCCC(CC)CO[Si](OCC(CC)CCCC)(OCC(CC)CCCC)OCC(CC)CCCC (centres undefined)
  outcome: inactive

## Cc1ccc([N+](=O)[O-])c2c(NCCC[N+](C)(C)[O-])ccnc12
  EC50: > 200 µM
  IC50: 28.8 µM

## CC1=C(OCCCl)C2CC1C1C(=O)N(c3ccccc3)C(=O)C21 (centres undefined)
  EC50: > 389 µM
  IC50: > 389 µM

## COc1ccc([N+](=O)[O-])cc1NC(=O)c1ccc2c(c1)C(=O)OC2=O
  EC50: 29.5 µM
  IC50: 64.6 µM

## CN(O)C(=O)/C=C/c1ccc(OCc2cccc(Cl)c2)cc1
  EC50: > 200 µM
  IC50: 46.8 µM

## COc1ccc(C(=O)O[C@H]2[C@@H]3C=CO[C@@H](OC4OC(CO)C(O)C(O)C4O)[C@@H]3[C@@]3(CO)O[C@@H]23)cc1O (some centres undefined)
  outcome: inactive

## CCN(Cc1ccccc1)c1ccc(/C=C/c2nccc3ccccc23)cc1
  EC50: > 14.5 µM
  IC50: 14.1 µM

## O=c1[nH]nc(-c2ccccc2)n1/N=C\CC/C=N\n1c(-c2ccccc2)n[nH]c1=O
  outcome: inactive

## C(=C\c1ccc2ccccc2c1Nc1ccccc1)/c1ccccc1
  outcome: inactive

## COc1cccc(C2c3cc4c(cc3OC(C)(O)C2C)OCO4)c1O (centres undefined)
  EC50: > 200 µM
  IC50: 0.646 µM

## Cc1cccc2c1CC(Cc1ccccc1C(=O)O)C2=O (centres undefined)
  EC50: > 200 µM
  IC50: > 200 µM

## CC(CCC(C)C(=O)O)C(=O)O (centres undefined)
  EC50: > 1450 µM
  IC50: > 1450 µM

## CC(C)C(=O)Nc1nc2c(ncn2C2OC(CO)C(O)C2O)c(=O)[nH]1 (centres undefined)
  EC50: > 708 µM
  IC50: 513 µM

## CCOc1ccc(NC(=O)CC2SC(=Nc3ccc(C)cc3C)NC2=O)cc1 (centres undefined)
  EC50: > 66.1 µM
  IC50: > 66.1 µM

## CCCc1cc(=O)[nH]c2c3c(c4c(c12)OC(C)(C)C=C4)O[C@H](C)[C@@H](C)[C@@H]3O
  EC50: 0.12 µM
  IC50: 2 µM

## Cc1nc(-c2ccc([N+](=O)[O-])cc2)cn2c1nc1ccccc12
  EC50: 457 µM
  IC50: 501 µM

## CC(NC(=O)OCC[P+](c1ccccc1)(c1ccccc1)c1ccccc1)C(=O)O (centres undefined)
  EC50: > 200 µM
  IC50: 5.89 µM

## O=C(Nc1ccccc1)n1cc(-c2ccccn2)c(N2CCOCC2)n1
  EC50: > 195 µM
  IC50: 53.7 µM

## O[C@@H]1CO[C@H]2[C@@H]1OC[C@@H]2O
  EC50: > 200 µM
  IC50: > 200 µM

## Cc1cc(CO)c(O)c(CN(CC(=O)O)CC(=O)O)c1
  EC50: > 200 µM
  IC50: 141 µM

## N#Cc1c(N)oc2cc3c(C#N)c(N)oc3cc12
  outcome: inactive

## CCOC(=O)/C(=C\c1ccc(N(C)C)cc1)C(C)=O
  EC50: > 501 µM
  IC50: 162 µM

## Cc1cccc(C)c1N=O
  outcome: inactive
